We go through four compounds from ChEMBL document CHEMBL4024756, “Identification of 4-Phenoxyquinoline Based Inhibitors for L1196M Mutant of Anaplastic Lymphoma Kinase by Structure-Based Design” (J Med Chem, 2017).

Data set [1] in a line: Cmax in rat at 10 mg/kg, po. Type of data set: ADME, organism-based. The arrangement: dose 10 mg/kg, route oral. Particulars: in vivo.
Data set [2] in a line: Cmax in rat at 1 mg/kg, iv. Type of data set: ADME, organism-based. The arrangement: dose 1 mg/kg, route intravenous. Particulars: in vivo.
The nature of data set [3]: Tmax in rat at 10 mg/kg, po. It is filed as ADME, organism-based. Particulars: in vivo.
Data set [4] can be described thus: AUClast in rat at 10 mg/kg, po. Type of data set: ADME, organism-based. The arrangement: dose 10 mg/kg, time 0 - last, route oral. Particulars: in vivo.
Data set [5] can be described thus: Tmax in rat at 1 mg/kg, iv. Type of data set: ADME, organism-based. Particulars: in vivo.
The nature of data set [6]: Half life in rat at 1 mg/kg, iv. It is filed as ADME, organism-based. Particulars: in vivo.
A short description of data set [7]: AUClast in rat at 1 mg/kg, iv. Type of data set: ADME, organism-based. The arrangement: dose 1 mg/kg, time 0 - last, route intravenous. Particulars: in vivo.
Data set [8] in a line: Oral bioavailability in rat at 10 mg/kg. Type of data set: ADME, organism-based. Particulars: in vivo.
Data set [9] concerns the target Voltage-gated inwardly rectifying potassium channel KCNH2 (Homo sapiens, UniProt Q12809). The data set is described as follows: Inhibition of human ERG by fluorescently labeled tracer binding method.
Data set [10] in a line: Antiproliferative activity against human H2228/CR cells after 72 hrs by MTT assay. Particulars: NCI-H2228, 72 h.
For a further data set, the system named is NCI-H2228. The data set is described as follows: Antiproliferative activity against human NCI-H2228 cells after 72 hrs by MTT assay. Particulars: NCI-H2228, 72 h. Background: Tetrazolium assays rely on reduction of a dye to a coloured formazan, in cell work by metabolically active cells.

SMILES strings stand for the structures.

A word on the Cmax: it is the peak of the concentration-time curve. By Tmax is commonly meant the time from dosing to the highest level. For orientation: AUC(0-t) means the area under the concentration-time curve up to a stated or last time point. As a reminder, the half-life is how long it takes for the measured level to halve. Read a high half-life as slow decline. The bioavailability is the share of a dose that reaches the circulation, judged against a reference dose that is usually intravenous. Read a high bioavailability as good availability. As a reminder, the IC50 is the concentration needed to halve the response being measured. Low readings indicate greater potency in that assay, high ones weaker potency in that assay.

Voltage-gated inwardly rectifying potassium channel KCNH2, sequence (Q12809 whole entry): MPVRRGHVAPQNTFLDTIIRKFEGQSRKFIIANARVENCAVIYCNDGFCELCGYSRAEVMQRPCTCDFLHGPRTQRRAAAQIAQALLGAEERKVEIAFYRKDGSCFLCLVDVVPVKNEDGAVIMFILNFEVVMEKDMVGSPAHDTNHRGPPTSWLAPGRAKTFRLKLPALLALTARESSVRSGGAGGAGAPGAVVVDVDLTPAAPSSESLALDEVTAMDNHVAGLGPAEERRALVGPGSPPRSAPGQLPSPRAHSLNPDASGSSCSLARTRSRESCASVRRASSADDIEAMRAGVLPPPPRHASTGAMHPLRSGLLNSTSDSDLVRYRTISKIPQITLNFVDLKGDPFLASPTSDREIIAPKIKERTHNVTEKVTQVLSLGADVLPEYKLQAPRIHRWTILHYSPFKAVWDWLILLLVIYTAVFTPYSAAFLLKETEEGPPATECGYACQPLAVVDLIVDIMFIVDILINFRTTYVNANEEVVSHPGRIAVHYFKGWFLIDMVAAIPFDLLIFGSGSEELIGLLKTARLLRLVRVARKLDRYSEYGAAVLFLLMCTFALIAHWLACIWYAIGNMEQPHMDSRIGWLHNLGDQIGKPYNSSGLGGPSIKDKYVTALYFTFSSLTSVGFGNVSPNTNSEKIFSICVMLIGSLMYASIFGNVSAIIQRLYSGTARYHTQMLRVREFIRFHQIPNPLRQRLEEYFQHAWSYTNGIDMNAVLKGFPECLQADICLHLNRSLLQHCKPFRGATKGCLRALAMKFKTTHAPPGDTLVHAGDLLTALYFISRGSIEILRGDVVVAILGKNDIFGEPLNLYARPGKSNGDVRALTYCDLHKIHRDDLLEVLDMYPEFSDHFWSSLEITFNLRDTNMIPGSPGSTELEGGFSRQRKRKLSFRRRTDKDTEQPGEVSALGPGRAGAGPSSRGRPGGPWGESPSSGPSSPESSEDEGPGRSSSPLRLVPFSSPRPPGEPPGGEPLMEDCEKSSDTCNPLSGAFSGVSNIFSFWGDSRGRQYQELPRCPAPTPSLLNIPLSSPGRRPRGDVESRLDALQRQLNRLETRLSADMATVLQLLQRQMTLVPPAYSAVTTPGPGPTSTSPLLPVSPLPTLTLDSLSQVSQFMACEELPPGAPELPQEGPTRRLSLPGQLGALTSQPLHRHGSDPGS

`Oc1ccc(Oc2ccnc3cc(-c4cnn(C5CCNCC5)c4)ccc23)cc1`: the figures for the Cmax in data set [1] and in [2] were 78.4 ng/mL and 83.5 ng/mL, respectively. In addition, the Tmax in [3] came to 6 h; in data set [5], 6 min. Besides, the AUC(0-t) in data set [4] worked out at 384 ng·h/mL; in data set [7], 155 ng·h/mL. In data set [6], this compound showed a half-life of 3.5 h. This compound also had a bioavailability in data set [8] of 24.8%.

`COc1ccc(Oc2ccnc3cc(-c4cnn(C5CCNCC5)c4)ccc23)cc1`: the Cmax in [1] was determined as 83.9 ng/mL; in data set [2], 48.9 ng/mL. Further, the Tmax in data set [3] turned out to be 4 h; in [5], 6 min. For the same compound, the values for the AUC(0-t) in data set [4] and in data set [7] were 437 ng·h/mL and 95.9 ng·h/mL, respectively. The compound further showed a half-life in data set [6] of 10.7 h. Also, the IC50 in data set [9] was found to be 2460 nM. Moreover, the bioavailability in data set [8] came out at 45.5%.

Take `Cc1ccc(Oc2ccnc3cc(-c4cnn(C5CCNCC5)c4)ccc23)cc1`: the Cmax in [1] is 131 ng/mL; in data set [2], 94.1 ng/mL. In addition, the Tmax in data set [3] is 4 h; in data set [5], 6 min. Further, the AUC(0-t) is 745 ng·h/mL in data set [4] and 166 ng·h/mL in data set [7]. In data set [6], the half-life is 3.3 h. This compound displayed a bioavailability in data set [8] of 44.8%.

Consider `C[C@@H](Oc1cc(-c2cnn(C3CCNCC3)c2)cnc1N)c1c(Cl)ccc(F)c1Cl` [CRIZOTINIB], for which the IC50 in data set [10] turned out to be 10000 nM; in the data set on NCI-H2228 it was 2500 nM.
